Active and inactive are the calls of the source. The calls are words filed in the database; no cut-off is given here.

For assay [1], the system named is Mus musculus. Nature of the assay: Decrease in amyloid plaque burden in cerebral cortex of APPswe/PSIdeltaE9 double transgenic C57BL/6J mouse at 30 mg/kg/day administered via oral gavage for 30 days by AB10 staining based immunohistochemical assay. It is filed as functional. Details: scale not given: the % may be the effect or the level left.
Assay [2] deals with Mus musculus. The assay can be described thus: Increase in nerve growth factor levels in cerebral cortex of APPswe/PSIdeltaE9 double transgenic C57BL/6J mouse at 30 mg/kg/day administered via oral gavage for 30 days. It is filed as functional, organism-based.
Assay [3] has as its system Mus musculus. Nature of the assay: Increase in insulin degrading enzyme in cerebral cortex of APPswe/PSIdeltaE9 double transgenic C57BL/6J mouse at 30 mg/kg/day administered via oral gavage for 30 days by Western blot analysis. It is filed as functional. In general terms: Immunoblotting shows a protein as a band on a membrane.
The test system of assay [4] is Mus musculus. The assay can be described thus: Effect on neprilysin levels in cerebral cortex of APPswe/PSIdeltaE9 double transgenic C57BL/6J mouse at 30 mg/kg/day administered via oral gavage for 30 days by Western blot analysis. In kind it is functional, organism-based.

With `CC(C)C1=C2C3=CC=C(C=O)C[C@H](O[C@@H]4OC[C@@H](O)[C@H](O)[C@H]4O)[C@]3(C)CC[C@@]2(C)CC1`, the Activity is recorded as 40.2% in the assay on Mus musculus [1] and 130.5% in the assay on Mus musculus [3]. Further, the outcome in the assay with Mus musculus [2] and in the assay on Mus musculus [4] was inactive.
For `CC(C)C1=C2[C@H]3CCC4=C(O)C(=O)[C@@]5(O)CO[C@H]6O[C@@H]([C@@H]4[C@]65O)[C@]3(C)CC[C@@]2(C)CC1`, the figures for the Activity with Mus musculus [1] and with Mus musculus [3] were 38.1% and 141.1%, respectively. In addition, the result in the assay with Mus musculus [2] and in the assay on Mus musculus [4] was inactive.

The values above are taken from ChEMBL document CHEMBL3797050, “Erinacine S, a Rare Sesterterpene from the Mycelia of Hericium erinaceus” (2016).
